Assay results taken from patent US20260007634A1, “PHARMACEUTICAL COMPOSITIONS FOR THE TREATMENT OF ALLERGIC DISEASES” (KINKI UNIVERSITY, priority 2022, published 2026).

What was measured:
Format in all cases: in vivo, mouse
OVA-IgE antibody [1] = assay: Serum OVA-IgE antibody ELISA, allergic rhinitis mice; settings: serum day 28, oral 10 mg/kg (dexamethasone 2 mg/kg), control 2.7, vehicle 69
Method: (§1) A 0.2 mL dose of 50 μg ovalbumin (OVA) and 2 mg Alum mixture was administered to 6-week-old female Balb/c mice (Japan SLC Inc.) (day 0 of the example). Alum was used as an adjuvant. Seven days later and 14 days later, the Balb/c mice were immunized again with 0.2 mL injections of the above mixture. Starting on day 20, mice were orally treated with 10 mg/kg of norathyriol, 10 mg/kg of mangiferin 8a, 10 mg/kg of tofacitinib (JAK inhibitor), 2 mg/kg of dexamethasone (steroid) and 10 mg/kg of olopatadine (antihistamine) daily for 8 consecutive days. Starting on day 21, 400 μg OVA was administered intranasally, and nose-scratching behavior was measured on day 27. Note that tofacitinib, dexamethasone, and olopatadine are currently in clinical use in allergic rhinitis and were used as control drugs in this example.
Serum was collected from day 28 mice in Examples 6 and 7, and OVA-IgE antibody production was measured by enzyme-linked immunosorbent assay (ELISA). This assay was performed using a mouse OVA-IgE antibody ELISA kit (FUJIFILM Wako).

IgE antibody [2] = assay: Serum IgE antibody ELISA, allergic rhinitis mice; settings: OVA allergic rhinitis; serum day 28; oral 10 mg/kg (dexamethasone 2 mg/kg); control 58, vehicle 111
Method: as §1
Serum was collected from day 28 mice in Examples 6 and 7, and IgE antibody production was measured by enzyme-linked immunosorbent assay (ELISA). This assay was performed using a mouse IgE antibody ELISA kit (R&D).

IL-5 = assay: Serum IL-5 ELISA, bronchial asthma mice; settings: OVA bronchial asthma; serum day 28; oral 10 mg/kg (dexamethasone 2 mg/kg); control 80, vehicle 992
Method: as §1, with “cough” for “nose-scratching behavior”
Serum was collected from day 28 mice in Examples 14, and IL-5 production was measured by enzyme-linked immunosorbent assay (ELISA). This assay was performed using a mouse IL-5 ELISA kit (R&D).

IL-17 = assay: Serum IL-17 ELISA, bronchial asthma mice; settings: OVA bronchial asthma; serum day 28; oral 10 mg/kg (dexamethasone 2 mg/kg); control 80, vehicle 898
Method: as §1, with “cough” for “nose-scratching behavior”
Serum was collected from day 28 mice in Examples 14, and IL-17 production was measured by enzyme-linked immunosorbent assay (ELISA). This assay was performed using a mouse IL-17 ELISA kit (R&D).

OVA-IgE antibody [3] = assay: Serum OVA-IgE antibody ELISA, food allergy mice; settings: serum day 28, oral 10 mg/kg (dexamethasone 2 mg/kg), control 1.5, vehicle 74
Method: A 0.2 mL dose of 10 μg ovalbumin (OVA) and 1 mg Alum mixture was administered to 6-week-old female Balb/c mice (Japan SLC Inc.) (day 0 of the example). Alum was used as an adjuvant. Seven days later, the Balb/c mice were immunized again with a 0.2 mL injection of the above mixture. Starting on day 14, mice were orally treated with 10 mg/kg of norathyriol, 10 mg/kg of mangiferin 8a, 10 mg/kg of tofacitinib (JAK inhibitor), 2 mg/kg of dexamethasone (steroid) and 10 mg/kg of olopatadine (antihistamine) daily for 14 consecutive days. Starting on day 14, 10 mg OVA was administered orally every other day […], and the frequency of diarrhea was measured after the final administration on day 28. Note that tofacitinib, dexamethasone, and olopatadine are currently in clinical use in food allergy and were used as control drugs in this example.
Serum was collected from day 28 mice in Examples 21, and OVA-IgE antibody production was measured by enzyme-linked immunosorbent assay (ELISA). This assay was performed using a mouse OVA-IgE antibody ELISAkit (FUJIFILM Wako).

IgE antibody [4] = assay: Serum IgE antibody ELISA, cedar pollinosis mice; settings: serum day 28, oral 10 mg/kg (dexamethasone 2 mg/kg), control 71, vehicle 207
Method: as §1, with “of 100” for “of 50”, “μg cedar pollen” for “μg ovalbumin (OVA)”, “and 1” for “and 2”, “21, 500” for “21, 400”, “μg cedar pollen” for “μg OVA”, “in cedar pollinosis” for “in allergic rhinitis”
Serum was collected from day 28 mice in Examples 28 and 29, and IgE antibody production was measured by enzyme-linked immunosorbent assay (ELISA). This assay was performed using a mouse IgE antibody ELISA kit (R&D).

[5] = system: Balb/c mice with cedar pollinosis; assay: Sneezing, cedar pollinosis model mice; settings: oral daily 8 days from day 20, 10 mg/kg (dexamethasone 2 mg/kg), measured day 27, vs vehicle group
Method: A 0.2 mL dose of 100 μg cedar pollen and 1 mg Alum mixture was administered to 6-week-old female Balb/c mice (Japan SLC Inc.) (day 0 of the example). Alum was used as an adjuvant. Seven days later and 14 days later, the Balb/c mice were immunized again with 0.2 mL injections of the above mixture. Starting on day 20, mice were orally treated with 10 mg/kg of norathyriol, 10 mg/kg of mangiferin 8a, 10 mg/kg of tofacitinib (JAK inhibitor), 2 mg/kg of dexamethasone (steroid) and 10 mg/kg of olopatadine (antihistamine) daily for 8 consecutive days. Starting on day 21, 500 μg cedar pollen was administered intranasally, and sneezing was measured on day 27. Note that tofacitinib, dexamethasone, and olopatadine are currently in clinical use in cedar pollinosis and were used as control drugs in this example.
The group that was just immunized with cedar pollen is called the subject group, the one that received norathyriol is called the norathyriol group, the one that received mangiferin 8a is called the mangiferin 8a group, the one that received tofacitinib is called the tofacitinib group, the one that received dexamethasone is called the dexamethasone group, and the one that received olopatadine is called the olopatadine group. Each group consisted of five animals.

C[C@@H]1C[C@H]2[C@@H]3CCC4=CC(=O)C=C[C@]4(C)[C@@]3(F)[C@@H](O)C[C@]2(C)[C@@]1(O)C(=O)CO [dexamethasone]
amount of OVA-IgE antibody (OVA-IgE antibody [1]): 18 U/mL | amount of IgE antibody (IgE antibody [2]): 40 ng/mL | amount of IL-5 (IL-5): 286 pg/mL | amount of IL-17 (IL-17): 257 pg/mL | amount of OVA-IgE antibody (OVA-IgE antibody [3]): 21 U/mL | amount of IgE antibody (IgE antibody [4]): 154 ng/mL

O=c1c2cc(O)c(O)cc2oc2cc(O)cc(O)c12 [norathyriol, 1,3,6,7-tetrahydroxyxanthone]
amount of OVA-IgE antibody (OVA-IgE antibody [1]): 36 U/mL | amount of IgE antibody (IgE antibody [2]): 77 ng/mL | amount of IL-5 (IL-5): 601 pg/mL | amount of IL-17 (IL-17): 530 pg/mL | amount of OVA-IgE antibody (OVA-IgE antibody [3]): 45 U/mL | number of sneezing [5]: significantly decreased the number of sneezing | amount of IgE antibody (IgE antibody [4]): 156 ng/mL

CN(C)CC/C=C1/c2ccccc2COc2ccc(CC(=O)O)cc21 [olopatadine]
amount of OVA-IgE antibody (OVA-IgE antibody [1]): 67 U/mL | amount of IgE antibody (IgE antibody [2]): 118 ng/mL | amount of IL-5 (IL-5): 866 pg/mL | amount of IL-17 (IL-17): 848 pg/mL | amount of OVA-IgE antibody (OVA-IgE antibody [3]): 68 U/mL | number of sneezing [5]: significantly decreased the number of sneezing | amount of IgE antibody (IgE antibody [4]): 218 ng/mL

C[C@@H]1CCN(C(=O)CC#N)C[C@@H]1N(C)c1ncnc2[nH]ccc12 [tofacitinib]
amount of OVA-IgE antibody (OVA-IgE antibody [1]): 50 U/mL | amount of IgE antibody (IgE antibody [2]): 94 ng/mL | amount of IL-5 (IL-5): 833 pg/mL | amount of IL-17 (IL-17): 844 pg/mL | amount of OVA-IgE antibody (OVA-IgE antibody [3]): 61 U/mL | number of sneezing [5]: significantly decreased the number of sneezing | amount of IgE antibody (IgE antibody [4]): 185 ng/mL
